Data as given in PubChem BioAssay AID1918939 (Molecular Pharmacology Branch, DTP, NCI, 2023).
“And” between values parts separate entries of the source, which are not always exact repeats. Identical values can stand only once.

Tested on: 653999-131-R-J2-PDC complex spheroid viability
Assay: Anticancer human tumor 653999-131-R-J2-PDC patient-derived lung adenocarcinoma cell line growth inhibition
Conditions: for viability, T/C: stronger effect = lower value
Method in brief: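 Complex spheroids of tumor cells with HUVEC and human MSCs, exposed to iadademstat combined with other agents. Each agent tested in half-log steps from near clinical Cmax (else 10 microM top), DMSO ≤0.25%.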

[1] = curve of first compound, second compound 0.1 µM
[2] = curve of first compound, second compound 0.316 µM
[3] = curve of first compound, second compound 1 µM
[4] = curve of first compound, second compound 3.16 µM
[5] = curve of first compound, second compound 10 µM
[6] = second compound 0.1 µM, first compound 0.00316 µM
[7] = second compound 0.1 µM, first compound 0.01 µM
[8] = second compound 0.1 µM, first compound 0.0316 µM
[9] = second compound 0.1 µM, first compound 0.1 µM
[10] = second compound 0.316 µM, first compound 0.00316 µM
[11] = second compound 0.316 µM, first compound 0.01 µM
[12] = second compound 0.316 µM, first compound 0.0316 µM
[13] = second compound 0.316 µM, first compound 0.1 µM
[14] = second compound 1 µM, first compound 0.00316 µM
[15] = second compound 1 µM, first compound 0.01 µM
[16] = second compound 1 µM, first compound 0.0316 µM
[17] = second compound 1 µM, first compound 0.1 µM
[18] = second compound 3.16 µM, first compound 0.00316 µM
[19] = second compound 3.16 µM, first compound 0.01 µM
[20] = second compound 3.16 µM, first compound 0.0316 µM
[21] = second compound 3.16 µM, first compound 0.1 µM
[22] = second compound 10 µM, first compound 0.00316 µM
[23] = second compound 10 µM, first compound 0.01 µM
[24] = second compound 10 µM, first compound 0.0316 µM
[25] = second compound 10 µM, first compound 0.1 µM
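Further: spheroids exposed to agents for seven days before readout.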

CCN(c1cc(-c2ccc(CN3CCOCC3)cc2)cc(C(=O)NCc2c(C)cc(C)[nH]c2=O)c1C)C1CCOCC1 + NC1CCC(NC2CC2c2ccccc2)CC1
IC50 [1]: > 3000 nM
IC50 [2]: > 3000 nM
IC50 [3]: > 3000 nM
IC50 [4]: > 3000 nM
IC50 [5]: > 3000 nM
viability, T/C (second compound 0.1 µM, first compound 0.00949 µM): 97.1%
viability, T/C (second compound 0.1 µM, first compound 0.03 µM): 93%
viability, T/C (second compound 0.1 µM, first compound 0.0949 µM): 98.2%
viability, T/C (second compound 0.1 µM, first compound 0.3 µM): 94.9%
viability, T/C (second compound 0.1 µM, first compound 0.949 µM): 80.8%
viability, T/C (second compound 0.1 µM, first compound 3 µM): 74.9%
viability, T/C (second compound 0.316 µM, first compound 0.00949 µM): 80.6%
viability, T/C (second compound 0.316 µM, first compound 0.03 µM): 88.9%
viability, T/C (second compound 0.316 µM, first compound 0.0949 µM): 91.8%
viability, T/C (second compound 0.316 µM, first compound 0.3 µM): 80.9%
viability, T/C (second compound 0.316 µM, first compound 0.949 µM): 87.6%
viability, T/C (second compound 0.316 µM, first compound 3 µM): 72.2%
viability, T/C (second compound 1 µM, first compound 0.00949 µM): 77.6%
viability, T/C (second compound 1 µM, first compound 0.03 µM): 101%
viability, T/C (second compound 1 µM, first compound 0.0949 µM): 92.2%
viability, T/C (second compound 1 µM, first compound 0.3 µM): 76.3%
viability, T/C (second compound 1 µM, first compound 0.949 µM): 70.2%
viability, T/C (second compound 1 µM, first compound 3 µM): 78.8%
viability, T/C (second compound 3.16 µM, first compound 0.00949 µM): 96.1%
viability, T/C (second compound 3.16 µM, first compound 0.03 µM): 94.5%
viability, T/C (second compound 3.16 µM, first compound 0.0949 µM): 108%
viability, T/C (second compound 3.16 µM, first compound 0.3 µM): 84%
viability, T/C (second compound 3.16 µM, first compound 0.949 µM): 76.6%
viability, T/C (second compound 3.16 µM, first compound 3 µM): 83.9%
viability, T/C (second compound 10 µM, first compound 0.00949 µM): 87.7%
viability, T/C (second compound 10 µM, first compound 0.03 µM): 84.9%
viability, T/C (second compound 10 µM, first compound 0.0949 µM): 85.5%
viability, T/C (second compound 10 µM, first compound 0.3 µM): 76%
viability, T/C (second compound 10 µM, first compound 0.949 µM): 70%
viability, T/C (second compound 10 µM, first compound 3 µM): 82.4%

Cn1ncnc1C1c2n[nH]c(=O)c3cc(F)cc(c23)NC1c1ccc(F)cc1 (configuration not stated) + NC1CCC(NC2CC2c2ccccc2)CC1
IC50 [1]: > 100 nM
IC50 [2]: > 100 nM
IC50 [3]: > 100 nM
IC50 [4]: > 100 nM
IC50 [5]: > 100 nM
viability, T/C (second compound 0.1 µM, first compound 0.000316 µM): 86.9%
viability, T/C (second compound 0.1 µM, first compound 0.001 µM): 86.9%
viability, T/C [6]: 85.6%
viability, T/C [7]: 73%
viability, T/C [8]: 80.9%
viability, T/C [9]: 71.4%
viability, T/C (second compound 0.316 µM, first compound 0.000316 µM): 85.4%
viability, T/C (second compound 0.316 µM, first compound 0.001 µM): 82.5%
viability, T/C [10]: 82.1%
viability, T/C [11]: 87.2%
viability, T/C [12]: 73.9%
viability, T/C [13]: 86%
viability, T/C (second compound 1 µM, first compound 0.000316 µM): 95.6%
viability, T/C (second compound 1 µM, first compound 0.001 µM): 81.3%
viability, T/C [14]: 82.9%
viability, T/C [15]: 74.9%
viability, T/C [16]: 75.9%
viability, T/C [17]: 78.1%
viability, T/C (second compound 3.16 µM, first compound 0.000316 µM): 94.6%
viability, T/C (second compound 3.16 µM, first compound 0.001 µM): 91.8%
viability, T/C [18]: 91.1%
viability, T/C [19]: 87.3%
viability, T/C [20]: 76.7%
viability, T/C [21]: 72.1%
viability, T/C (second compound 10 µM, first compound 0.000316 µM): 96.9%
viability, T/C (second compound 10 µM, first compound 0.001 µM): 99.4%
viability, T/C [22]: 97.6%
viability, T/C [23]: 84.5%
viability, T/C [24]: 72%
viability, T/C [25]: 78.2%

O=C(C=Cn1cnc(-c2cc(C(F)(F)F)cc(C(F)(F)F)c2)n1)NNc1cnccn1 + NC1CC1c1ccc(-c2cccc(O)c2)cc1
IC50 [1]: 14.8 nM
IC50 [2]: 6.9 nM
IC50 [3]: < 3.16 nM
IC50 [4]: < 3.16 nM
IC50 [5]: < 3.16 nM
viability, T/C [6]: 53.4%
viability, T/C [7]: 53.9%
viability, T/C [8]: 47.5%
viability, T/C [9]: 38.8%
viability, T/C (second compound 0.1 µM, first compound 0.316 µM): 39%
viability, T/C (second compound 0.1 µM, first compound 1 µM): 29.2%
viability, T/C [10]: 54%
viability, T/C [11]: 48.3%
viability, T/C [12]: 44.3%
viability, T/C [13]: 34.9%
viability, T/C (second compound 0.316 µM, first compound 0.316 µM): 37.2%
viability, T/C (second compound 0.316 µM, first compound 1 µM): 31.8%
viability, T/C [14]: 47.8%
viability, T/C [15]: 51.5%
viability, T/C [16]: 43%
viability, T/C [17]: 34.2%
viability, T/C (second compound 1 µM, first compound 0.316 µM): 27.2%
viability, T/C (second compound 1 µM, first compound 1 µM): 27.4%
viability, T/C [18]: 46.4%
viability, T/C [19]: 45.8%
viability, T/C [20]: 38.8%
viability, T/C [21]: 41.1%
viability, T/C (second compound 3.16 µM, first compound 0.316 µM): 30%
viability, T/C (second compound 3.16 µM, first compound 1 µM): 24.8%
viability, T/C [22]: 49.5%
viability, T/C [23]: 48.8%
viability, T/C [24]: 39.5%
viability, T/C [25]: 39.6%
viability, T/C (second compound 10 µM, first compound 0.316 µM): 33.7%
viability, T/C (second compound 10 µM, first compound 1 µM): 27%

CCN(c1cc(-c2ccc(CN3CCOCC3)cc2)cc(C(=O)NCc2c(C)cc(C)[nH]c2=O)c1C)C1CCOCC1
viability, T/C (compound 0.00949 µM): 91.4% and 104%
viability, T/C (compound 0.03 µM): 96.6% and 104%
viability, T/C (compound 0.0949 µM): 103%
viability, T/C (compound 0.3 µM): 97.3% and 101%
viability, T/C (compound 0.949 µM): 91.9% and 89.5%
viability, T/C (compound 3 µM): 92.6% and 92%
IC50 (curve of compound): > 3000 nM
